Measurements from paper PMC12655637, “Design, Synthesis, and Mechanistic Study of Novel Ciprofloxacin/Thiazole Chalcone Hybrids as Potential Anticancer Agents” (Pharmaceuticals, 2025).

Key:
Experiment in all cases: NCI-60 screening, one-dose (10 µM) and five-dose, SRB
K-562 = format: cell-based, human; details: Homo sapiens, K562, 10 μM; K-562, Leukemia; read-out: Growth percentage
RPMI-8226 = format: cell-based, human; details: Homo sapiens; for activity at 10 µM: RPMI-8226, 10 μM, RPMI-8226, Leukemia, read-out: Growth percentage
SR = format: cell-based, human; details: 10 μM, Leukemia
EKVX = format: cell-based, human; details: Homo sapiens, 10 μM, Non-Small-Cell Lung Cancer, read-out: Growth percentage
HOP-92 = format: cell-based, human; details: Homo sapiens; 10 μM; HOP-92, Non-Small-Cell Lung Cancer; read-out: Growth percentage
NCI-H23 = format: cell-based, human; details: Homo sapiens; 10 μM; NCI-H23, Non-Small-Cell Lung Cancer; read-out: Growth percentage
NCI-H460 = format: cell-based, human; details: Homo sapiens, NCI-H460, 10 μM; NCI-H460, Non-Small-Cell Lung Cancer; read-out: Growth percentage
COLO 205 = format: cell-based, human; details: Homo sapiens; 10 μM; COLO 205, Colon Cancer; read-out: Growth percentage
HCC-2998 = format: cell-based, human; details: Homo sapiens; 10 μM; HCC-2998, Colon Cancer; read-out: Growth percentage
HCT-116 = format: cell-based, human; details: Homo sapiens; for activity at 10 µM: HCT-116, 10 μM, HCT-116, Colon Cancer, read-out: Growth percentage
SF-268 = format: cell-based, human; details: Homo sapiens; 10 μM; SF-268, CNS Cancer; read-out: Growth percentage
SF-295 = format: cell-based, human; details: Homo sapiens; 10 μM; SF-295, CNS Cancer; read-out: Growth percentage
SNB-75 = format: cell-based, human; details: Homo sapiens; 10 μM; SNB-75, CNS Cancer; read-out: Growth percentage
U251 = format: cell-based, human; details: Homo sapiens, U-251; 10 μM; U251, CNS Cancer; read-out: Growth percentage
LOX IMVI = format: cell-based, human; details: Homo sapiens, 10 μM, Melanoma, read-out: Growth percentage
M14 = format: cell-based, human; details: Homo sapiens; 10 μM; M14, Melanoma; read-out: Growth percentage
SK-MEL-28 = format: cell-based, human; details: Homo sapiens; 10 μM; SK-MEL-28, Melanoma; read-out: Growth percentage
SK-MEL-5 = format: cell-based, human; details: Homo sapiens; 10 μM; SK-MEL-5, Melanoma; read-out: Growth percentage
UACC-62 = format: cell-based; details: Homo sapiens; 10 μM; UACC-62, Melanoma; read-out: Growth percentage
OVCAR-4 = format: cell-based, human; details: Homo sapiens; 10 μM; OVCAR-4, Ovarian Cancer; read-out: Growth percentage
786−0 = format: cell-based, human; details: Homo sapiens; 10 μM; 786−0, Renal Cancer; read-out: Growth percentage
A498 = format: cell-based; details: Homo sapiens, A498, 10 μM; A498, Renal Cancer; read-out: Growth percentage
CAKI-1 = format: cell-based; details: Homo sapiens; 10 μM; CAKI-1, Renal Cancer; read-out: Growth percentage
RXF 393 = format: cell-based; details: Homo sapiens; 10 μM; RXF 393, Renal Cancer; read-out: Growth percentage
PC-3 = format: cell-based, human; details: Homo sapiens; 10 μM; PC-3, Prostate Cancer; read-out: Growth percentage
DU-145 = format: cell-based, human; details: Homo sapiens; 10 μM; DU-145, Prostate Cancer; read-out: Growth percentage
MCF7 = format: cell-based, human; details: Homo sapiens, MCF7, 10 μM; MCF7, Breast Cancer; read-out: Growth percentage
NCI-H322M = format: cell-based, human; details: 10 μM, Non-Small-Cell Lung Cancer
MALME-3M = format: cell-based, human; details: 10 μM, Melanoma
IGROV1 = format: cell-based, human; details: 10 μM; IGROV1, Ovarian Cancer

Structure (SMILES): Cc1nc(SCC(=O)N2CCN(c3cc4c(cc3F)c(=O)c(C(=O)O)cn4C3CC3)CC2)sc1C(=O)/C=C/c1ccc([N+](=O)[O-])cc1 [Compound 4h, (E)-1-Cyclopropyl-6-fluoro-7-(4-(2-((4-methyl-5-(3-(4-nitrophenyl)acryloyl)thiazol-2-yl)thio)acetyl)piperazin-1-yl)-4-oxo-1,4-dihydroquinoline-3-carboxylic Acid]
- activity at 10 µM (K-562): 28.9%
- activity at 10 µM (RPMI-8226): 16.3%
- Growth percentage (SR): 23.8%
- activity at 10 µM (EKVX): 113%
- activity at 10 µM (HOP-92): 126%
- activity at 10 µM (NCI-H23): 73.2%
- activity at 10 µM (NCI-H460): 99.4%
- activity at 10 µM (COLO 205): 95.9%
- activity at 10 µM (HCC-2998): 71.9%
- activity at 10 µM (HCT-116): 33.8%
- activity at 10 µM (SF-268): 81.1%
- activity at 10 µM (SF-295): 116%
- activity at 10 µM (SNB-75): 91.2%
- activity at 10 µM (U251): 59.9%
- activity at 10 µM (LOX IMVI): 28.3%
- activity at 10 µM (M14): 70.5%
- activity at 10 µM (SK-MEL-28): 60%
- activity at 10 µM (SK-MEL-5): 83.5%
- activity at 10 µM (UACC-62): 59%
- activity at 10 µM (OVCAR-4): 89.2%
- activity at 10 µM (786−0): 87.6%
- activity at 10 µM (A498): 125%
- activity at 10 µM (CAKI-1): 116%
- activity at 10 µM (RXF 393): 89.5%
- activity at 10 µM (PC-3): 85.9%
- activity at 10 µM (DU-145): 85.3%
- activity at 10 µM (MCF7): 7.2%

Structure (SMILES): Cc1nc(SCC(=O)N2CCN(c3cc4c(cc3F)c(=O)c(C(=O)O)cn4C3CC3)CC2)sc1C(=O)/C=C/c1ccc(N(C)C)cc1 [Compound 4i, (E)-1-Cyclopropyl-7-(4-(2-((5-(3-(4-(dimethylamino)phenyl)acryloyl)-4-methylthiazol-2-yl)thio)acetyl)piperazin-1-yl)-6-fluoro-4-oxo-1,4-dihydroquinoline-3-carboxylic Acid]
- activity at 10 µM (K-562): 61.3%
- activity at 10 µM (RPMI-8226): 4.7%
- Growth percentage (SR): 64.5%
- activity at 10 µM (EKVX): 110%
- activity at 10 µM (HOP-92): 91.7%
- activity at 10 µM (NCI-H23): 76.2%
- activity at 10 µM (NCI-H460): 108%
- activity at 10 µM (COLO 205): 117%
- activity at 10 µM (HCC-2998): 44.4%
- activity at 10 µM (HCT-116): 2.6%
- activity at 10 µM (SF-268): 140%
- activity at 10 µM (SF-295): 91.4%
- activity at 10 µM (SNB-75): 104%
- activity at 10 µM (U251): 48%
- activity at 10 µM (LOX IMVI): 24.6%
- activity at 10 µM (M14): 75.9%
- activity at 10 µM (SK-MEL-28): 95.9%
- activity at 10 µM (SK-MEL-5): 89.8%
- activity at 10 µM (UACC-62): 79.9%
- activity at 10 µM (OVCAR-4): 102%
- activity at 10 µM (786−0): 59.2%
- activity at 10 µM (A498): 126%
- activity at 10 µM (CAKI-1): 81.7%
- activity at 10 µM (RXF 393): 90.5%
- activity at 10 µM (PC-3): 96.7%
- activity at 10 µM (DU-145): 147%
- activity at 10 µM (MCF7): 17.3%

Structure (SMILES): COc1ccc(/C=C/C(=O)c2sc(SCC(=O)N3CCN(c4cc5c(cc4F)c(=O)c(C(=O)O)cn5C4CC4)CC3)nc2C)cc1 [Compound 4j, (E)-1-Cyclopropyl-6-fluoro-7-(4-(2-((5-(3-(4-methoxyphenyl)acryloyl)-4-methylthiazol-2-yl)thio)acetyl)piperazin-1-yl)-4-oxo-1,4-dihydroquinoline-3-carboxylic Acid]
- activity at 10 µM (K-562): 98.3%
- activity at 10 µM (RPMI-8226): 106%
- Growth percentage (SR): 88.9%
- activity at 10 µM (EKVX): 103%
- activity at 10 µM (HOP-92): 105%
- activity at 10 µM (NCI-H23): 102%
- activity at 10 µM (NCI-H460): 106%
- activity at 10 µM (COLO 205): 106%
- activity at 10 µM (HCC-2998): 100%
- activity at 10 µM (HCT-116): 103%
- activity at 10 µM (SF-268): 148%
- activity at 10 µM (SF-295): 101%
- activity at 10 µM (SNB-75): 86.2%
- activity at 10 µM (U251): 107%
- activity at 10 µM (LOX IMVI): 97.9%
- activity at 10 µM (M14): 109%
- activity at 10 µM (SK-MEL-28): 114%
- activity at 10 µM (SK-MEL-5): 99.7%
- activity at 10 µM (UACC-62): 111%
- activity at 10 µM (OVCAR-4): 101%
- activity at 10 µM (786−0): 88.6%
- activity at 10 µM (A498): 117%
- activity at 10 µM (CAKI-1): 94.9%
- activity at 10 µM (RXF 393): 99.3%
- activity at 10 µM (PC-3): 107%
- activity at 10 µM (DU-145): 113%
- activity at 10 µM (MCF7): 93.3%

Structure (SMILES): COc1cccc(/C=C/C(=O)c2sc(SCC(=O)N3CCN(c4cc5c(cc4F)c(=O)c(C(=O)O)cn5C4CC4)CC3)nc2C)c1OC [Compound 4k, (E)-1-Cyclopropyl-7-(4-(2-((5-(3-(2,3-dimethoxyphenyl)acryloyl)-4-methylthiazol-2-yl)thio)acetyl)piperazin-1-yl)-6-fluoro-4-oxo-1,4-dihydroquinoline-3-carboxylic Acid]
- activity at 10 µM (K-562): 133%
- IC50 (RPMI-8226; RPMI-8226, RPMI-8226): 340 nM
- activity at 10 µM (EKVX): 96.9%
- activity at 10 µM (HOP-92): 122%
- activity at 10 µM (NCI-H23): 87.9%
- Growth percentage (NCI-H322M): 114.8%
- activity at 10 µM (NCI-H460): 73.1%
- activity at 10 µM (COLO 205): 126%
- activity at 10 µM (HCC-2998): 76.8%
- IC50 (HCT-116; colon HCT-116): 340 nM
- activity at 10 µM (SF-268): 109%
- activity at 10 µM (SF-295): 97.4%
- activity at 10 µM (SNB-75): 100%
- activity at 10 µM (U251): 103%
- activity at 10 µM (LOX IMVI): 104%
- Growth percentage (MALME-3M): 115.2%
- activity at 10 µM (M14): 75.1%
- activity at 10 µM (SK-MEL-28): 100%
- activity at 10 µM (SK-MEL-5): 83%
- activity at 10 µM (UACC-62): 102%
- Growth percentage (IGROV1): 101.3%
- activity at 10 µM (OVCAR-4): 118%
- activity at 10 µM (786−0): 96.9%
- activity at 10 µM (A498): 90.9%
- activity at 10 µM (CAKI-1): 107%
- activity at 10 µM (RXF 393): 86.3%
- activity at 10 µM (PC-3): 93.5%
- activity at 10 µM (DU-145): 98%
